From article PMC5784132, “Investigation of 20S-hydroxyvitamin D3 analogs and their 1α-OH derivatives as potent vitamin D receptor agonists with anti-inflammatory activities” (Scientific Reports, 2018)

Columns and labels:
[1] = test system: CYP24A1 gene expression; assay: RT-PCR analysis of CYP24A1 expression in HaCaT cells; type: cell-based; conditions: 100 nM, 24 h treatment; for fold induction at 0.1 µM: Homo sapiens, read-out: relative mRNA level for CYP24A1 versus vehicle control
Description: Figure 7 20S(OH)D3 analogs upregulate the expression of CYP24A1 encoding the vitamin D catabolic enzyme, CYP24A1, with varying efficiencies. […] The mRNA was isolated and the RT-PCR was performed using specific primers for the CYP24A1 gene (see Methods). Data are presented as mean ± SE (n = 3). *p < 0.05, **p < 0.01 and ***p < 0.001 compared with the control.
HaCaT cells were purchased from Thermo Fisher Scientific (Waltham, MA, USA) and were cultured as for the VDRE reporter assay. The RNA from HaCaT keratinocytes treated with secosteroids or from DMSO controls was isolated using the Absolutely RNA Miniprep Kit (Stratagene, La Jolla, CA, USA). Reverse transcription (100 ng RNA/reaction) was performed with the Transcriptor First Strand cDNA Synthesis Kit (Roche Inc., Mannheim, Germany). Real-time PCR was performed using cDNA diluted 10-fold in sterile water and a SYBR Green PCR Master Mix. The primers for both forward and reverse strands for CYP24A1 were designed based on the mouse and rat sequences using Primer Quest software ([…], San Jose, CA, USA). Reactions (in triplicate) were performed at 50 °C for 2 min, 95 °C for 10 min and then 40 cycles of 95 °C for 15 s, 60 °C for 30 s and 72 °C for 30 s. Data were collected and analyzed on a Roche Light Cycler 480. The amount of the final amplified product for each gene was compared and normalized to the amount of β-actin product as a housekeeping gene using a comparative Ct method.

[2] = biological target: T1, VDR (Homo sapiens, UniProt P11473); assay: VDRE-luciferase reporter assay in Caco-2 cells
T1 sequence (P11473 1-427): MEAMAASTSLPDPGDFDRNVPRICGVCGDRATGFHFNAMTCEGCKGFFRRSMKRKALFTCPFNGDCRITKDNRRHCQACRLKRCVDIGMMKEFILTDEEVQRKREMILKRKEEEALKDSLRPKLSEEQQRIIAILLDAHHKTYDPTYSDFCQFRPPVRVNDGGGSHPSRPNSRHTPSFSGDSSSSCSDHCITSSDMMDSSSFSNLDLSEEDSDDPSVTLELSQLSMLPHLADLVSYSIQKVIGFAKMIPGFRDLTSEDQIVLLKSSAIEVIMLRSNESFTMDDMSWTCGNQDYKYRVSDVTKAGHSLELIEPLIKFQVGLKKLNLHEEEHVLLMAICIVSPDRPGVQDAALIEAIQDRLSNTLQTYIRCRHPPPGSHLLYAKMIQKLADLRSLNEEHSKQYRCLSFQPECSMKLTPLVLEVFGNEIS

[3] = biological target: T1, VDR; assay: VDRE-luciferase reporter assay in HaCaT cells
[4] = test system: IFNγ production; assay: IFNγ inhibition assay in anti-CD3 activated splenocytes; conditions: for activity at 0.1 µM: Mus musculus, Splenocyte, 72 h, read-out: IFNγ (ratio ± SD)
[5] = biological target: T1, VDR; assay: VDRE-luciferase reporter assay in Jurkat cells
[6] = biological target: T2, mouse CYP27B1 (Mus musculus, UniProt O35084); assay: Metabolism (1α-hydroxylation) of analogs by mouse CYP27B1; type: in vitro ADME; conditions: 0.018 mol/mol phospholipid, 0.8 µM mouse CYP27B1, 20 min, 37 °C
T2 construct: made in house; host or cells: E. coli
T2 sequence (O35084 1-507): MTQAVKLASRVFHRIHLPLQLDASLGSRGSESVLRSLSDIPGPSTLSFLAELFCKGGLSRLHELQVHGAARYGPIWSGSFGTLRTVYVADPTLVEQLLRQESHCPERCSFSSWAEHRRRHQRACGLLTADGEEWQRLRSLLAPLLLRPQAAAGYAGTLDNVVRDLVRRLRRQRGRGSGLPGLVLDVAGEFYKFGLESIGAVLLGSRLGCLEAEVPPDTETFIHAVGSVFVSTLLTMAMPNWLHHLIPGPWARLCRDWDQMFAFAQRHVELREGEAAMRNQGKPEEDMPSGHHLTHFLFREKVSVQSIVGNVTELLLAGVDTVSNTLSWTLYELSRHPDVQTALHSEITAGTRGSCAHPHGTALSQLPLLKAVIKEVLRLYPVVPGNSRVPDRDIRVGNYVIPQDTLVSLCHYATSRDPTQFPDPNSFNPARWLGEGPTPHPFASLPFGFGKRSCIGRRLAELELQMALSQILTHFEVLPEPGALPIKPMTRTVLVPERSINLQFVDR
Description: In order to make the 1α-OH derivatives of the 20S(OH)D3 analogs enzymatically, and to assess their likely capacity to be 1α-hydroxylated in vivo, the ability of mouse CYP27B1 to hydroxylate these metabolites was examined. 25(OH)D3, the major natural substrate for CYP27B1[2],[30], was included for comparison. The 20S(OH)D3 analogs were incorporated into phospholipid vesicles and incubated with CYP27B1, then the extent of their metabolism was determined by HPLC (Table 2). All analogs tested except 33 were metabolized by CYP27B1. In each case only a single metabolite was produced, assumed to be the 1α-OH derivative based on the known high specificity of the enzyme for the 1α-position[24],[30],[31]. […] Metabolism of 4 was almost twice that of 20S(OH)D3 and metabolism of 23 almost three fold. Thus, the modifications to C24 and/or C25 seen in 13, 4 and 23 enhanced their ability to be metabolized by CYP27B1. […] In contrast, the introduction of an amide linkage into the side chain, as in 33, prevented its hydroxylation by CYP27B1.
Rat CYP24A1, mouse CYP27B1 and adrenodoxin and human adrenodoxin reductase were expressed in E. coli and purified as described before[28],[30],[35]. To test metabolism of each analog, they were incorporated into phospholipid vesicles made from dioleoyl phosphatidylcholine and cardiolipin by sonication, as before[24],[28]. The substrates in vesicles (510 µM phospholipid) were incubated at 37 °C with either CYP24A1 (0.14 µM) or CYP27B1 (0.8 µM) in a reconstituted system containing adrenodoxin (15 µM) and adrenodoxin reductase (0.4 µM). Samples from incubations with CYP24A1 were extracted with dichloromethane and analysed by HPLC using a 25 cm Grace Alltima C18 column, as before[27],[28]. Products (except 33) were separated using an acetonitrile on water gradient (45% to 100% for 20 min then 100% acetonitrile for 40 min at a flow rate of 0.5 mL/min). For the more polar 33, the acetonitrile gradient was 30% to 100% acetonitrile for 30 min then 100% acetonitrile for 20 min, at 0.5 mL/min. Products from incubations with CYP27B1 were similarly extracted with dichloromethane and analyzed by reverse phase HPLC using a 15 cm Grace Smart C18 column and an acetonitrile in water gradient (10 min 45% to 100% acetonitrile then 20 min at 100% acetonitrile, at 0.5 mL/min).

[7] = low dose of 0.1 µg/kg; cited from earlier work
[8] = biological target: T3, rat CYP24A1 (Rattus norvegicus, UniProt Q09128); assay: Kinetics of metabolism of analogs in phospholipid vesicles by rat CYP24A1; type: in vitro ADME; conditions: for Km: rat CYP24A1 0.14 µM, phospholipid vesicles, 1 min incubation, ± SE from curve fit
T3 construct: made in house; host or cells: E. coli
T3 sequence (Q09128 36-514): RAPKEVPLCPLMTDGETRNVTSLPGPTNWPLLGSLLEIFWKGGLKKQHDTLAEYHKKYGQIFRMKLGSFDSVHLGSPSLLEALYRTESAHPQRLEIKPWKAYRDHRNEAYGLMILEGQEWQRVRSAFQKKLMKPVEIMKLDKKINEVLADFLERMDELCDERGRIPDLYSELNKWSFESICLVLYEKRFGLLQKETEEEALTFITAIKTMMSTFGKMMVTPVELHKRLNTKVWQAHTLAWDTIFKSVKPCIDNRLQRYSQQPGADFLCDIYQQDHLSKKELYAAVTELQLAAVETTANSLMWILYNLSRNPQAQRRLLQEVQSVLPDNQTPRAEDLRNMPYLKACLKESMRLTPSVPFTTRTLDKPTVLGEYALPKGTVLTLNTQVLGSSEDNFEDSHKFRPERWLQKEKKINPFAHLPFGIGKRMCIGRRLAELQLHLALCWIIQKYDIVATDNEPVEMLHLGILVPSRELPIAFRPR
Description: An incubation time of 1 min was chosen to obtain the initial rate based on the time courses (Fig. 6) and previous studies[28],[29].
To test metabolism of each analog, they were incorporated into phospholipid vesicles made from dioleoyl phosphatidylcholine and cardiolipin by sonication, as before[24],[28]. […] Samples from incubations with CYP24A1 were extracted with dichloromethane and analysed by HPLC using a 25 cm Grace Alltima C18 column, as before[27],[28]. […] For the more polar 33, the acetonitrile gradient was 30% to 100% acetonitrile for 30 min then 100% acetonitrile for 20 min, at 0.5 mL/min.

| Product (% total secosteroids) [6] | EC50 [2] | EC50 [3] | EC50 [5] | Km [8] | Structure (SMILES) | fold induction at 0.1 µM [1] | activity at 0.1 µM [4] | further results |
| --- | --- | --- | --- | --- | --- | --- | --- | --- |
|  |  |  |  |  | C=C1/C(=C\C=C2/CCC[C@]3(C)[C@@H]([C@H](C)OCCC(C)(C)O)CC[C@@H]23)C[C@@H](O)C[C@@H]1O [22-Oxa, reference compound] |  |  | relative mRNA level for CYP24A1 versus vehicle control [1]: 77.5 fold; EC50 ([2]; read-out: VDRE stimulation (EC50 ± SD, nM) Caco-2, Caco-2 cells, 24 h, NS: no significance): 42.5 ± 1.6 nM; EC50 ([3]; read-out: VDRE stimulation (EC50 ± SD, nM) HaCaT, HaCaT cells, 24 h, NS: no significance): 40.1 ± 1.5 nM; decrease of IFNγ production level ([4]; 100 nM): 51%; IFNγ (ratio ± SD) ([4]; ratio to control (1.000), 100 nM, mouse splenocytes, anti-CD3, 72 h): 0.487 ± 0.017; EC50 ([5]; read-out: VDRE stimulation (EC50 ± SD, nM) Jurkat, Jurkat cells, 24 h, NS: no significance): 2.9 ± 0.3 nM |
| 86.0 % total secosteroids |  |  |  |  | C=C1CC[C@H](O)C/C1=C/C=C1\CCC[C@]2(C)[C@@H]([C@H](C)CCCC(C)(C)O)CC[C@@H]12 [25(OH)D3, 25-hydroxyvitamin D3, reference compound] |  |  |  |
|  | 236 ± 4.1 nM | 254 ± 7.9 nM | 305 ± 4.5 nM |  | C=C1/C(=C\C=C2/CCC[C@@]3(C)[C@H]2CC[C@@H]3[C@@](C)(O)CCC(F)(F)C(C)C)C[C@@H](O)C[C@@H]1O [compound 24] | 2.3 | 56 ± 1% |  |
|  |  |  |  |  | C=C1/C(=C\C=C2/CCC[C@]3(C)[C@@H]([C@H](C)CCCC(C)(C)O)CC[C@@H]23)C[C@@H](O)C[C@@H]1O [1,25(OH)2D3, 1α,25-dihydroxyvitamin D3, reference compound] |  |  | calcemic effect [7]: substantial calcemic effect; decrease of IFNγ production level ([4]; 100 nM): 60% |
|  | 188 ± 1.9 nM | 226 ± 3.5 nM | 248 ± 5 nM |  | C=C1/C(=C\C=C2/CCC[C@@]3(C)[C@H]2CC[C@@H]3[C@@](C)(O)CCOC(C)C)C[C@@H](O)C[C@@H]1O [compound 14] | 2 | 62.8 ± 0.8% |  |
| 57.1 % total secosteroids |  |  |  | 11.6 ± 3.1 mmol/mol PL | C=C1CC[C@H](O)C/C1=C/C=C1\CCC[C@@]2(C)[C@H]1CC[C@@H]2[C@@](C)(O)CCC(F)(F)C(C)C [compound 23] | 0.9 | 69.8 ± 3.1% | Km, fold lower than that for 20S(OH)D3 ([8]; rat CYP24A1): 3–4 fold |
| 0 % total secosteroids |  |  |  | 15.4 ± 1.7 mmol/mol PL | C=C1CC[C@H](O)C/C1=C/C=C1\CCC[C@]2(C)[C@@H](C(C)(O)CC(=O)NC(C)C)CC[C@@H]12 (stereo partly shown) [compound 33] | 1.2 | 62.8 ± 1.4% | catalytic efficiency, fold lower than for 13 ([8]; rat CYP24A1): 13 fold; kcat, fold lower than for 1,25(OH)2D3 ([8]; rat CYP24A1): approximately 4 fold |
| 40.6 % total secosteroids | 580 ± 19.2 nM | 460 ± 36.5 nM | 439 ± 25.7 nM | 2.0 ± 1.7 mmol/mol PL | C=C1CC[C@H](O)C/C1=C/C=C1\CCC[C@@]2(C)[C@H]1CC[C@@H]2[C@@](C)(O)CCC=C(C)C [compound 4] | 32.4 | 83.2 ± 2.3% | kcat, fold lower than for 1,25(OH)2D3 ([8]; rat CYP24A1): approximately 4 fold |
|  | 182 ± 6.1 nM | 198 ± 8.1 nM | 237 ± 5.5 nM |  | C=C1/C(=C\C=C2/CCC[C@@]3(C)[C@H]2CC[C@@H]3[C@@](C)(O)CCC=C(C)C)C[C@@H](O)C[C@@H]1O [compound 5] | 149 | 38.1 ± 1.7% |  |
